Measured values as given in the NIST ThermoML archive (doi:10.1016/j.fluid.2014.12.040).

Assays:
[1] = for surface tension liquid-gas: Wilhelmy-plate method; for mass density: 100 kPa, Liquid, Vibrating tube method
[2] = xn = mol fraction of the nth substance listed; details: for surface tension liquid-gas: Wilhelmy-plate method; for mass density: 100 kPa, Liquid, Vibrating tube method

CC(O)CO (centres undefined) [1,2-propanediol]
[1]
Details	mass density [kg/m3]	surface tension liquid-gas [mN/m]
298.15 K	1032.69	35.74
308.15 K	1025.21	35.35
318.15 K	1017.51	34.96
328.15 K	1009.78	34.6

CC(C)O [propan-2-ol]
[1]
Details	mass density [kg/m3]	surface tension liquid-gas [mN/m]
298.15 K	781.18	20.85
308.15 K	772.32	20.1
318.15 K	763.61	19.4
328.15 K	754.84	18.75

CC(C)O [propan-2-ol] + CC(O)CO
[2], x1 = 1
Details	mass density [kg/m3]	surface tension liquid-gas [mN/m]
298.15 K	781.18	20.85
308.15 K	772.32	20.1
318.15 K	763.61	19.4
328.15 K	754.84	18.75

O [water]
[1]
Details	mass density [kg/m3]	surface tension liquid-gas [mN/m]
298.15 K	–	72.03
308.15 K	–	70.3
318.15 K	–	68.7
328.15 K	985.66	66.9

O [water] + CC(O)CO
[2], x2 = 0
Details	mass density [kg/m3]	surface tension liquid-gas [mN/m]
298.15 K	–	72.03
308.15 K	–	70.3
318.15 K	–	68.7
328.15 K	985.66	66.9
